Laboratory results reported in US20110195845A1, “Constructs for Expressing Herbicide Tolerance Genes, Related Plants, and Related Trait Combinations” (Dow AgroSciences LLC, priority 2008, published 2011).

Columns and labels:
[1] = tested on: Escherichia coli BL21-Star (DE3) expressing PAT (v3); test: Complementation of cell growth on glufosinate, pDAB4434 (PAT v3); format: cell-based; set-up: key: −− = No Growth; +++ = Distinct Colony Growth; conditions: 24 hrs @28 C, 20 uM IPTG
Text: A pET28a(+) expression plasmid containing PAT (v3) was constructed as a positive control. PAT (v3) was cloned as an NcoI-SacI fragment into corresponding restriction sites of pDAB779. Positive clones containing the PAT (v3) gene fragment were verified via restriction enzyme digestion. This construct was labeled as pDAB4434.
The plasmids, pDAB4434, pDAB4412, and an empty pET vector (control) were transformed into Escherichia coli BL21-Star (DE3) bacterial cells. Expression cultures were initiated with 10-200 freshly transformed colonies into 250 mL LB medium containing 50 μg/ml antibiotic and 75 μM IPTG (isopropyl-[…]). The cultures were grown at 28° C. for 24 hours at 180-200 rpm. Five microliters of the culture was inoculated onto a complex media control and minimal media containing incrementally increasing concentrations of glufosinate and 20 μM IPTG. The cultures were dispersed evenly over the plates and incubated at 28° C. for 24 hours.

[2] = tested on: T0 PAT-transformed corn plants; test: Leaf paint with glufosinate in T0 corn; format: in vivo; conditions: 2 WAT
Experimental: T0 DSM-2 (v2) plants were painted with a rundown of glufosinate herbicide. Four siblings from each of 15 T0 events were tested, and 4 leaves on each individual plant received a rundown of glufosinate at approximately V8 stage. Rundown treatments were randomized for each rate allowing for variation of treatment location on individual leaves. For corn, 0.25% v/v glufosinate is the minimum effective dose to distinguish sensitive plants from ones with meaningful levels of resistance. Elevated rates were also applied to determine relative levels of resistance (0.5%, 1.0%, and 2.0% v/v). Glufosinate treatments were applied using cotton tipped applicators to a treatment area of approximately 2.5 cm in diameter.
Table 11 compares the response of DSM-2 (v2) and control genes to impart glufosinate resistance to corn T0 transformants. Response is presented in terms of % visual injury 2 WAT. […] Since each T0 is an independent transformation event, one can expect significant variation of individual T0 responses within a given rate. An arithmetic mean and standard deviation is presented for each treatment. Untransformed wildtype corn served as a glufosinate sensitive control. The DSM-2 (v2) gene imparted herbicide resistance to individual T0 corn plants. Within a given treatment, the level of plant response varied greatly and can be attributed to the fact each plant represents an independent transformation event.

[3] = tested on: DSM-2 v2 (pDAS1941) T2 corn; test: T2 corn response to glufosinate applied postemergence; format: in vivo; conditions: for % Injury Ave / individuals with % Injury 20-40% / individuals with % Injury <20% / individuals with % Injury >40%: 14DAT
Text: (§1) The seed from the cross of T1 DSM-2 (v2)×5× H751 were planted into 4-inch pots containing Metro Mix media and at 2 leaf stage were sprayed in the track sprayer set to 187 L/ha at 560 g ai/ha glufosinate to remove nulls. At 7 DAT nulls were removed and resistant plants were sprayed in the track sprayer as above at the following rates: 0, 560, 1120, 2240, and 4480 g ai/ha glufosinate. Plants were graded at 3 and 14 DAT and compared to 5× H751× Hi II control plants.

PAT (pDAS1942) corn = test: as above; format: in vivo; conditions: 14DAT
Text: as §1

[4] = tested on: NT-1 tobacco suspension cells treated with DSM-2 (v2) (pDAB3778); test: NT-1 tobacco cell transformation, selection on bialaphos or glufosinate ammonium; format: cell-based
Experimental: Four days prior to transformation, a 1 week old NT-1 tobacco suspension, which was being subcultured every 7 days, was subcultured to fresh medium by adding 2 ml of the NT-1 culture or 1 ml of packed cells into 40 ml NT-1 B media. The subcultured suspension was maintained in the dark at 25±1° C. on a shaker at 125 rpm.
A 50% glycerol stock of Agrobacterium tumefaciens [strain LBA4404] harboring a binary vector of interest was used to initiate a liquid overnight culture by adding 20, 100, or 500 μl to 30 ml YEP liquid (10 g/L yeast extract, 10 g/L Peptone, 5 g/L NaCl, 0-10 g/L Sucrose) containing 50-100 mg/L spectinomycin. The bacterial culture was incubated in the dark at 28° C. in an incubator shaker at 150-250 rpm until the OD600 was 1.5+0.2. This took approximately 18-20 hrs.
For each vector tested, 20-70 mL of 4-day old suspension cells were transferred into a sterile vessel, to which 500-1750 μl of Agrobacterium suspension at the proper OD was added. To ensure a uniform mixture was achieved, the cells were pipetted up and down 5 times with a 10 ml wide-bore pipet. The uniform suspension was then drawn up into a 25 ml barrel of a repeat pipetter and 250 μl of the suspension was dispensed per well into 24-well plates, continuing until the suspension was exhausted. The well plates were wrapped in parafilm and cultured in the dark at 25±1° C. without shaking for a 3 day co-cultivation.
Following the co-cultivation, all excess liquid was removed from the individual wells with a 1 mL pipet tip, and remaining cells were resuspended in 1 ml NTC liquid (NT-1 B medium containing 500 mg/L carbenicillin, added after autoclaving). The contents of an individual well were dispersed across the entire surface of 100×25 mm selection plates using disposable transfer pipets. Selection media consisted of NTC media solidified with 8 g/l TC agar supplemented with 7.5 to 15 mg/L bialaphos or technical grade glufosinate ammonium, added after autoclaving. All selection plates, left unwrapped, were maintained in the dark at 28° C.
Putative transformants appeared as small clusters of callus on a background of dead, non-transformed cells. Calli were isolated approximately 2-6 weeks post-transformation. Each callus isolate was transferred to its own 60×20 mm plate containing the same selection medium and allowed to grow for approximately 2 weeks before being submitted for analysis.

[5] = 560 g ai/ha glufosinate postemergence
[6] = 1120 g ai/ha glufosinate postemergence
[7] = 2240 g ai/ha glufosinate postemergence
[8] = 4480 g ai/ha glufosinate postemergence

## CP(=O)(O)CCC(N)C(=O)O (centres unmarked) [glufosinate]
[1]; 250 μg/ml BASTA
  bacterial growth on minimal media: +++
[1]; 500 μg/ml BASTA
  bacterial growth on minimal media: +++
[1]; 1000 μg/ml BASTA
  bacterial growth on minimal media: +++
[1]; 2000 μg/ml BASTA
  bacterial growth on minimal media: +++
[1]; 4000 μg/ml BASTA
  bacterial growth on minimal media: +++
[2]; 0.25% v/v glufosinate leaf paint
  % Injury: 1%
[2]; 0.5% v/v glufosinate leaf paint
  % Injury: 3%
[2]; 1% v/v glufosinate leaf paint
  % Injury: 6%
[2]; 2% v/v glufosinate leaf paint
  % Injury: 9%
[3]; [5]
  % Injury Ave: 6%
  individuals with % Injury 20-40%: 0
  individuals with % Injury <20%: 4
  individuals with % Injury >40%: 0
[3]; [6]
  % Injury Ave: 18%
  individuals with % Injury 20-40%: 2
  individuals with % Injury <20%: 2
  individuals with % Injury >40%: 0
[3]; [7]
  % Injury Ave: 21%
  individuals with % Injury 20-40%: 3
  individuals with % Injury <20%: 1
  individuals with % Injury >40%: 0
[3]; [8]
  % Injury Ave: 29%
  individuals with % Injury 20-40%: 4
  individuals with % Injury <20%: 0
  individuals with % Injury >40%: 0
[3]; up to 2240 g ai/ha glufosinate
  injury of individual plants: less than 20%
PAT (pDAS1942) corn; [5]
  individuals with % Injury 20-40%: 0
  individuals with % Injury >40%: 0
PAT (pDAS1942) corn; [6]
  % Injury Ave: 25%
  individuals with % Injury 20-40%: 1
  individuals with % Injury <20%: 0
PAT (pDAS1942) corn; [8]
  % Injury Ave: 33%
  individuals with % Injury 20-40%: 3
  individuals with % Injury >40%: 1
[4]; 7.5 mg/L selection agent
  Transformation frequency (% of selection plates producing at least one callus) after coding region PCR: 55.6%
[4]; 10 mg/L selection agent
  Transformation frequency (% of selection plates producing at least one callus) after coding region PCR: 50.0%
[4]; 12.5 mg/L selection agent
  Transformation frequency (% of selection plates producing at least one callus) after coding region PCR: 44.4%
[4]; 15 mg/L selection agent
  Transformation frequency (% of selection plates producing at least one callus) after coding region PCR: 38.9%
